Reference: ChEMBL document CHEMBL1148772, “Inhibition of Mycobacterium tuberculosis, Mycobacterium bovis, and Mycobacterium avium by novel dideoxy nucleosides” (J Med Chem, 2007)
Converted amounts (≈) assume the structure as drawn.

Legend:
Assay type in all cases: functional
Conditions in all cases: variant bovis BCG
[1] = system: Mycobacterium tuberculosis; assay: Antimycobacterial activity against Mycobacterium bovis BCG at 100 uM by microplate alamar blue assay
[2] = system: Mycobacterium tuberculosis; assay: Antimycobacterial activity against Mycobacterium bovis BCG at 50 uM by microplate alamar blue assay
[3] = system: Mycobacterium tuberculosis; assay: Antimycobacterial activity against Mycobacterium bovis BCG at 10 uM by microplate alamar blue assay
[4] = system: Mycobacterium tuberculosis; assay: Antimycobacterial activity against Mycobacterium bovis BCG by microplate alamar blue assay
[5] = system: Mycobacterium tuberculosis; assay: Antimycobacterial activity against Mycobacterium bovis BCG at 1 uM by microplate alamar blue assay

Compound | inhibition at 100 µM [1] [%] | inhibition at 50 µM [2] [%] | inhibition at 10 µM [3] [%] | MIC90 [4] [µg/mL] | inhibition at 1 µM [5] [%]
Nc1nc(F)c2ccn([C@H]3CC[C@@H](CO)O3)c2n1 | 50 | 50 | 30 |  | 
Nc1ncnc2c1ncn2[C@H]1CC[C@@H](CO)O1 | 0 |  |  |  | 
CCCCCCCCCCC#Cc1cn([C@H]2C[C@H](F)[C@@H](CO)O2)c(=O)[nH]c1=O | 100 | 100 | 75 | 10 (≈ 25.3 µM) | 
COc1nc(N)nc2c1ncn2[C@H]1CC[C@@H](CO)O1 [METACAVIR] | 25 | 25 |  |  | 
CCCc1ccc(C#Cc2cn([C@H]3C[C@H](F)[C@@H](CO)O3)c(=O)[nH]c2=O)cc1 | 100 | 100 | 50 | 50 (≈ 134 µM) | 
CCCCCCCCCCCCC#Cc1cn(C2CC(F)C(CO)O2)c(=O)[nH]c1=O (stereo not drawn) | 100 | 100 | 100 | 1 (≈ 2.37 µM) | 
O=c1[nH]c(=O)n([C@H]2CC[C@@H](CO)O2)cc1C#Cc1ccccc1 | 25 | 25 |  |  | 
CCSc1nc(N)nc2c1ncn2[C@H]1CC[C@@H](CO)O1 | 100 | 100 | 40 | 10 (≈ 33.9 µM) | 
CCCC#Cc1cn([C@H]2CC[C@@H](CO)O2)c(=O)[nH]c1=O | 50 |  |  |  | 
O=c1[nH]c(=O)n([C@H]2CC[C@@H](CO)O2)cc1Br | 0 |  |  |  | 
CCCCCCCCCC#Cc1cn([C@H]2CC[C@@H](CO)O2)c(=O)[nH]c1=O | 100 | 100 | 100 | 1 (≈ 2.76 µM) | 80
CCCCCCCCC#Cc1cn([C@H]2C[C@H](F)[C@@H](CO)O2)c(=O)[nH]c1=O | 100 | 100 | 60 | 10 (≈ 27.3 µM) | 
N#Cc1cn(C2CCC(CO)O2)c2ncnc(N)c12 (stereo not drawn) | 50 | 40 |  |  | 
Nc1nc(N)c2ncn([C@H]3CC[C@@H](CO)O3)c2n1 | 50 | 50 |  |  | 
Cc1cn([C@H]2CC[C@@H](CO)O2)c(=O)nc1N | 50 | 50 | 50 |  | 
Nc1nc(=O)n([C@H]2CC[C@@H](CO)O2)cc1Br | 70 |  | 50 |  | 

Compound | inhibition at 100 µM [1] [%] | inhibition at 50 µM [2] [%] | inhibition at 10 µM [3] [%] | MIC90 [4] [µg/mL] | inhibition at 1 µM [5] [%]
CCCCCCCCCCCC#Cc1cn([C@H]2C[C@H](F)[C@@H](CO)O2)c(=O)[nH]c1=O | 100 | 100 | 75 | 10 (≈ 24.5 µM) | 
O=c1[nH]c(=O)n([C@H]2CC[C@@H](CO)O2)cc1Cl | 0 |  |  |  | 
CCCCCC#Cc1cn([C@H]2C[C@H](F)[C@@H](CO)O2)c(=O)[nH]c1=O | 100 | 50 | 50 | 50 (≈ 154 µM) | 
CC(=O)OC[C@@H]1CC[C@H](n2ccc(=O)[nH]c2=O)O1 | 0 |  |  |  | 
CCCCCCCCC#Cc1cn([C@H]2CC[C@@H](CO)O2)c(=O)[nH]c1=O | 100 | 100 | 100 | 1 (≈ 2.87 µM) | 50
Nc1nc(=O)n([C@H]2CC[C@@H](CO)O2)cc1I | 0 |  |  |  | 
O=c1[nH]c(=S)c(Cl)cn1[C@H]1CC[C@@H](CO)O1 | 100 | 50 |  | 50 (≈ 190 µM) | 
Nc1nc(O)c2ncn([C@H]3CC[C@@H](CO)O3)c2n1 | 0 |  |  |  | 
CCCCCCCCCCCC#Cc1cn([C@H]2CC[C@@H](CO)O2)c(=O)[nH]c1=O | 100 | 100 | 100 | 1 (≈ 2.56 µM) | 60
Nc1ccn([C@H]2CC[C@@H](CO)O2)c(=O)n1 [ZALCITABINE] | 0 |  |  |  | 
CC(=O)OC[C@@H]1CC[C@H](n2cc(Cl)c(=O)[nH]c2=O)O1 | 0 |  |  |  | 
CC(=O)OC[C@@H]1CC[C@H](n2cc(Cl)c(=S)[nH]c2=O)O1 | 100 | 70 |  | 50 (≈ 164 µM) | 
NC(=O)c1cn([C@H]2CC[C@@H](CO)O2)c2ncnc(N)c12 | 25 | 25 |  |  | 
CO[C@H]1/C=C/O[C@@]2(C)Oc3c(C)c(O)c4c(O)c(c(/C=N/N5CCN(C)CC5)c(O)c4c3C2=O)NC(=O)/C(C)=C\C=C\[C@H](C)[C@H](O)[C@@H](C)[C@@H](O)[C@@H](C)[C@H](OC(C)=O)[C@@H]1C [RIFAMPIN] |  |  |  | 0.5 (≈ 0.608 µM) | 
CCCCCCCCCCCCC#Cc1cn([C@H]2CC[C@@H](CO)O2)c(=O)[nH]c1=O | 100 | 100 | 100 | 1 (≈ 2.47 µM) | 50
Nc1ccn([C@@H]2CS[C@H](CO)O2)c(=O)n1 [LAMIVUDINE] | 0 |  |  |  | 
